In patent publication US9481670B2, “Triazine compounds” (Sphaera Pharma PTE. Ltd., priority 2011, dated 2016):
pIC50: −log10 of the molar value.

Molecular target: T1, PI3K alpha (Homo sapiens, UniProt P42336)
T1 construct: purchased Millipore Upstate
Assay: P110 Alpha TR-FRET Assay (PI3K alpha kinase assay, HTRF Transcreener ADP Assay)
Type: biochemical
Conditions: PI3K (WT)
Experimental: PI3K alpha kinase assay may be done using HTRF Transcreener ADP Assay (Cisbio).
Composition of the reaction buffer was as follows 50 mM HEPES, pH 7.5, 5 mM MgCl2, 1 mM DTT, 30 μM Na3VO4. PI3 Kinase was procured from Millipore Upstate. […] ATP was used at final concentration of 10 μM. Corning 384 well white plates were used for the assay.
2 μl of diluted enzyme (50 ng), 3 μl of diluted compound and 5 μl of buffer were added, mixed then incubated for 20 minutes with shaking at 400 rpm. 3 μl of substrate (10 μM of ATP and 5 μM PIP2) were added to initiate the reaction. The samples were incubated for 20 min. At the end of the reaction time 10 μl of the Detection mix (5 μl of ADP-D2 and 5 μl of Anti-ADP-Cryptate) was added and the contents were incubated for 1 h. The reaction plate was directly read in an Envision Multilabel Plate Reader.

T1 sequence (P42336 whole entry): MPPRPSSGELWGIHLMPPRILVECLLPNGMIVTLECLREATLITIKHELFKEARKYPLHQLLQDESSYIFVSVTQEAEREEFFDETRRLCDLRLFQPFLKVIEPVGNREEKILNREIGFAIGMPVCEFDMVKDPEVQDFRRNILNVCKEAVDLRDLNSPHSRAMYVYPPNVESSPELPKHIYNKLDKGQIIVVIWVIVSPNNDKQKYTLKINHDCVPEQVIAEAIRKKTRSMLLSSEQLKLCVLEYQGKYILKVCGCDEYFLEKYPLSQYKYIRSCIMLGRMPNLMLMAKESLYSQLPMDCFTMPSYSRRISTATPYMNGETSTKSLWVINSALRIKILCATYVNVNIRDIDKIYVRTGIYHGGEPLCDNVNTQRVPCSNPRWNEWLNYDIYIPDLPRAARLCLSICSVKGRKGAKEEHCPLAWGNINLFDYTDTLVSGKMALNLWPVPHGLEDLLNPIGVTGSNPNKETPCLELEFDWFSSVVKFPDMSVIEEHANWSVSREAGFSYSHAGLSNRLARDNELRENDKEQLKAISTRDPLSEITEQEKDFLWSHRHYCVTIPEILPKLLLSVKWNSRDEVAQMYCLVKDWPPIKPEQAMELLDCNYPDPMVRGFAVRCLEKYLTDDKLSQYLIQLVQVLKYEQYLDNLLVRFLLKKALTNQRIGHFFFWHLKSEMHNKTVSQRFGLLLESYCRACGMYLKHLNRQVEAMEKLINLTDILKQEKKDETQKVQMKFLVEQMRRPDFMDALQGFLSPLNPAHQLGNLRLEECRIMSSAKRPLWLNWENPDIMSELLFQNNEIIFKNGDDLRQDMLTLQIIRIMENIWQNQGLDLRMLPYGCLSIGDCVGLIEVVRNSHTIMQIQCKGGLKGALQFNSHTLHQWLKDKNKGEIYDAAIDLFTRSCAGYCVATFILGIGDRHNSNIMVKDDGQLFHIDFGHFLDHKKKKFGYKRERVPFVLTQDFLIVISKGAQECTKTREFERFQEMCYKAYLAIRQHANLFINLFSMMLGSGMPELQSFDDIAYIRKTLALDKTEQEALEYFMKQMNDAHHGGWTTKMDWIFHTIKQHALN
T1 sequence (P27986 whole entry partner): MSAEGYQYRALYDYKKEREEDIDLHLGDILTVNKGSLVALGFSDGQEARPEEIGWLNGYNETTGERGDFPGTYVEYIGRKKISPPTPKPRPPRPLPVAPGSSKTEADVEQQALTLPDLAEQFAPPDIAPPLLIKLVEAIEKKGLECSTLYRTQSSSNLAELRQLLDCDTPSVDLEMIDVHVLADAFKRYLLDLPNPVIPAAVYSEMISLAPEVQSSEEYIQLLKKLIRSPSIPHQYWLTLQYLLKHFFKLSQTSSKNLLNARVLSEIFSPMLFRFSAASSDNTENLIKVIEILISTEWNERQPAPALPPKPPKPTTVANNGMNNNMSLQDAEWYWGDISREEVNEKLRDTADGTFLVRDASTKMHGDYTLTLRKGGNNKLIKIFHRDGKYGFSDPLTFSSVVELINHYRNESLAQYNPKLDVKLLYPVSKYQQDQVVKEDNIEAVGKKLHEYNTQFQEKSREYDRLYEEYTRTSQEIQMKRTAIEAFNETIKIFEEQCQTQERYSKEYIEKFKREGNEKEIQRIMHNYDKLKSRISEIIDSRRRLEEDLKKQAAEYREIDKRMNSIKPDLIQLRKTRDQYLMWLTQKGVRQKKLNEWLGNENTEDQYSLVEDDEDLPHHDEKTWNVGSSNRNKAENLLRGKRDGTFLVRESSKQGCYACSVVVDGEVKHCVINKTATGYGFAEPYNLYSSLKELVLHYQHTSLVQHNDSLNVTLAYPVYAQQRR

| pIC50 | Compound |
| --- | --- |
| > 5.30 | CS(=O)(=O)N[C@@H]1CC[C@@H](Oc2nc(-c3cccc4[nH]ncc34)nc(N3CCOCC3)n2)C1 [Compound 1083, N-[(1R,3R)-3-14-{[4-1-(1H-indazol-4-yl)-6-5-(morpholin-4-yl)-1,3,5-triazin-2-yl]oxy}cyclopentyl]methanesulfonamide] |
| < 5.30 | CN(C)C(=O)c1ccc(Oc2nc(-c3ccncc3)nc(-c3cccc4[nH]ncc34)n2)cc1 [Compound 1024, 4-9-{[4-1-(1H-indazol-4-yl)-6-5-(pyridin-4-yl)-1,3,5-triazin-2-yl]oxy}-N,N-dimethylbenzamide] |
| < 5.30 | CN(C)C(=O)c1ccc(Oc2nc(-c3cccc4[nH]ncc34)nc(N3CCOCC3)n2)nc1 [Compound 1072, 6-14-{[4-1-(1H-indazol-4-yl)-6-5-(morpholin-4-yl)-1,3,5-triazin-2-yl]oxy}-N,N-dimethylpyridine-3-carboxamide] |
| > 5.30 | CN(C)C(=O)c1cccc(Nc2nc(-c3ccc(N)nc3)nc(N3CCOCC3)n2)c1 [Compound 1060, 3-((4-(6-aminopyridin-3-yl)-6-morpholino-1,3,5-triazin-2-yl)amino)-N,N-dimethylbenzamide] |
| > 5.30 | CNC(=O)[C@H]1CC[C@@H](Nc2nc(-c3cccc4[nH]ncc34)nc(N3CCOCC3)n2)CC1 [Compound 1215, 4-((4-(1H-indazol-4-yl)-6-morpholino-1,3,5-triazin-2-yl)amino)-N-methylcyclohexanecarboxamide] |
| < 5.30 | CN(C)C(=O)c1ccc(Oc2nc(-c3cccc4[nH]nnc34)nc(N3CCOCC3)n2)cc1 [Compound 1050, 4-14-{[4-1-(1H-1,2,3-benzotriazol-4-yl)-6-5-(morpholin-4-yl)-1,3,5-triazin-2-yl]oxy}-N,N-dimethylbenzamide] |
| > 5.30 | CN(C)C(=O)c1ccc(COc2nc(-c3cccc4[nH]ncc34)nc(N3CCOCC3)n2)cc1 [Compound 1110, 4-23-({[4-1-(1H-indazol-4-yl)-6-5-(morpholin-4-yl)-1,3,5-triazin-2-yl]oxy}methyl)-N,N-dimethylbenzamide] |
| > 5.30 | Nc1ncc(-c2nc(N3CCOCC3)nc(N3CCN(S(N)(=O)=O)CC3)n2)cn1 [Compound 1053, 4-6-[4-1-(2-16-aminopyrimidin-5-yl)-6-5-(morpholin-4-yl)-1,3,5-triazin-2-yl]piperazine-1-sulfonamide] |
| > 5.30 | CN(C)C(=O)c1ccc(Oc2nc(-c3cnc4[nH]ccc4c3)nc(N3CCOCC3)n2)cc1 [Compound 1041, N,N-dimethyl-4-8-{[4-5-(morpholin-4-yl)-6-1-{1H-pyrrolo[2,3-b]pyridin-5-yl}-1,3,5-triazin-2-yl]oxy}benzamide] |
| > 5.30 | CN(C)C(=O)N1CC[C@H](Oc2nc(-c3ccc(N)nc3)nc(N3CCOCC3)n2)C1 [Compound 1026, 3-19-{[4-3-(6-16-aminopyridin-3-yl)-6-5-(morpholin-4-yl)-1,3,5-triazin-2-yl]oxy}-N,N-dimethylpyrrolidine-1-carboxamide] |
| > 5.30 | CS(=O)(=O)N1CCC(COc2nc(-c3cccc4[nH]ncc34)nc(N3CCOCC3)n2)CC1 [Compound 1096, 4-(4-(1H-indazol-4-yl)-6-((1-(methylsulfonyl)piperidin-4-yl)methoxy)-1,3,5-triazin-2-yl)morpholine] |
| > 5.30 | CN(C)C(=O)c1ccc(Oc2nc(-c3cnc(N)s3)nc(N3CCOCC3)n2)cc1 [Compound 1004, 4-14-{[4-1-(2-27-amino-1,3-thiazol-5-yl)-6-5-(morpholin-4-yl)-1,3,5-triazin-2-yl]oxy}-N,N-dimethylbenzamide] |
| > 5.30 | CN(C)C(=O)c1ccc(Oc2nc(-c3cccc4[nH]ncc34)nc(-n3ccnc3)n2)cc1 [Compound 1016, 4-9-{[4-5-(1H-imidazol-1-yl)-6-1-(1H-indazol-4-yl)-1,3,5-triazin-2-yl]oxy}-N,N-dimethylbenzamide] |
| > 5.30 | Nc1ccc(-c2nc(SCc3ccccc3)nc(N3CCOCC3)n2)cn1 [Compound 1037, 5-(4-(benzylthio)-6-morpholino-1,3,5-triazin-2-yl)pyridin-2-amine] |
| > 5.30 | CN(C)C(=O)c1ccc(Nc2nc(-c3cccc4[nH]ncc34)nc(N3CCOCC3)n2)cc1 [Compound 1204, 4-((4-(1H-indazol-4-yl)-6-morpholino-1,3,5-triazin-2-yl)amino)-N,N-dimethylbenzamide] |
| < 5.30 | COc1ccc(F)c(-c2nc(NCC(=O)O)nc(N3CCOCC3)n2)c1 [Compound 1156, 2-((4-(2-fluoro-5-methoxyphenyl)-6-morpholino-1,3,5-triazin-2-yl)amino)acetic acid] |
| > 5.30 | c1cc(-c2nc(N3CCCNCC3)nc(N3CCOCC3)n2)c2cn[nH]c2c1 [Compound 1213, 4-12-[4-3-(1,4-diazepan-1-yl)-6-5-(morpholin-4-yl)-1,3,5-triazin-2-yl]-1H-indazole] |
| < 5.30 | CN1CCN(c2nc(Oc3ccc(C(=O)N(C)C)cc3)nc(-c3cccc4[nH]ncc34)n2)CC1 [Compound 1061, 4-9-{[4-1-(1H-indazol-4-yl)-6-5-(4-30-methylpiperazin-1-yl)-1,3,5-triazin-2-yl]oxy}-N,N-dimethylbenzamide] |
| < 5.30 | CN(C)C(=O)c1cccc(Nc2nc(-c3cccc4[nH]ncc34)nc(N3CC(C(N)=O)C3)n2)c1 [Compound 1056] |
| > 5.30 | CN(C)C(=O)c1ccc(Oc2nc(-c3cncc(N)c3)nc(N3CCOCC3)n2)cc1 [Compound 1032, 4-14-{[4-1-(5-26-aminopyridin-3-yl)-6-5-(morpholin-4-yl)-1,3,5-triazin-2-yl]oxy}-N,N-dimethylbenzamide] |
| > 5.30 | CN(C)C(=O)C(Cc1ccccc1)Nc1nc(-c2cccc3[nH]ncc23)nc(N2CCOCC2)n1 (centres unmarked) [Compound 1209, 2-((4-(1H-indazol-4-yl)-6-morpholino-1,3,5-triazin-2-yl)amino)-N,N-dimethyl-3-phenylpropanamide] |
| > 5.30 | O=C1CCN(C(=O)c2cccc(Nc3nc(-c4cccc5[nH]ncc45)nc(N4CCOCC4)n3)c2)CCN1 [Compound 1117, 1-(3-((4-(1H-indazol-4-yl)-6-morpholino-1,3,5-triazin-2-yl)amino)benzoyl)-1,4-diazepan-5-one] |
| > 5.30 | CN(C)C(=O)N1CCC(Oc2nc(-c3cccc4[nH]ncc34)nc(N3CCOCC3)n2)C1 (centres unmarked) [Compound 1108, 3-14-{[4-1-(1H-indazol-4-yl)-6-5-(morpholin-4-yl)-1,3,5-triazin-2-yl]oxy}-N,N-dimethylpyrrolidine-1-carboxamide] |
| < 5.30 | C[C@H](Nc1nc(-c2cccc(NS(C)(=O)=O)c2)nc(N2CCOCC2)n1)C(=O)N1CCN(S(C)(=O)=O)CC1 [Compound 1066, N-[3-16-(4-1-{[(2S)-1-(4-30-methanesulfonylpiperazin-1-yl)-1-oxopropan-2-yl]amino}-6-2-(morpholin-4-yl)-1,3,5-triazin-2-yl)phenyl]methanesulfonamide] |
| > 5.30 | CN(C)C(=O)Cc1ccc(Oc2nc(-c3cccc4[nH]ncc34)nc(N3CCOCC3)n2)cc1 [Compound 1085, 2-27-(4-14-{[4-1-(1H-indazol-4-yl)-6-5-(morpholin-4-yl)-1,3,5-triazin-2-yl]oxy}phenyl)-N,N-dimethylacetamide] |

| Compound | pIC50 |
| --- | --- |
| 2-8-[4-1,6-5-bis(morpholin-4-yl)-1,3,5-triazin-2-yl]-2H-indazole [Compound 1112] | > 5.30 |
